In patent US6355799B1, “Substituted benzene compounds, process for their preparation, and herbicidal and defoliant compositions containing them” (ISK Americas Incorporated, priority 1997, dated 2002):

Tests used:
Assay type in all cases: in vivo
[1] = tested on: velvetleaf (Abutilon theophrasti, ABUTH); assay: Pre-emerge test, greenhouse herbicide activity screening; conditions: pre-emerge, rated 14 days after application, 0 = no damage, 100 = complete death
Outline: (§1)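 Compounds in acetone were track-sprayed at 15–1000 g ai/ha: pre-emergence onto soil sown the previous day, then top-watered to incorporate and later bottom-watered; post-emergence onto 2–3 leaf plants with 0.25% v/v surfactant, bottom-watered only. Ratings on a 0–100 phytotoxicity scale were taken at day 14.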

[2] = tested on: green foxtail (Setaria viridis, SETVI); assay: as above; conditions: pre-emerge, rated 14 days after application, 0 = no damage, 100 = complete death
Outline: as §1

[3] = tested on: barnyardgrass (Echinochloa crus-galli, ECHCG); assay: as above; conditions: pre-emerge, rated 14 days after application, 0 = no damage, 100 = complete death
Outline: as §1

[4] = tested on: large crabgrass (Digitaria sanguinalis, DIGSA); assay: as above; conditions: pre-emerge, rated 14 days after application, 0 = no damage, 100 = complete death
Outline: as §1

[5] = tested on: ivyleaf morningglory (Ipomoea hederacea, IPOHE); assay: as above; conditions: pre-emerge, rated 14 days after application, 0 = no damage, 100 = complete death
Outline: as §1

[6] = tested on: lambsquarters (Chenopodium album, CHEAL); assay: as above; conditions: pre-emerge, rated 14 days after application, 0 = no damage, 100 = complete death
Outline: as §1

[7] = tested on: common ragweed (Ambrosia artemisizfolia L., AMBEL); assay: as above; conditions: pre-emerge, rated 14 days after application, 0 = no damage, 100 = complete death
Outline: as §1

[8] = tested on: sicklepod (Cassia obtusifolia, CASOB); assay: as above; conditions: pre-emerge, rated 14 days after application, 0 = no damage, 100 = complete death
Outline: as §1

[9] = tested on: johnsongrass (Sorghum halepense, SORHA); assay: as above; conditions: pre-emerge, rated 14 days after application, 0 = no damage, 100 = complete death
Outline: as §1

[10] = tested on: redroot pigweed (Amaranthus retroflexus, AMARE); assay: as above; conditions: pre-emerge, rated 14 days after application, 0 = no damage, 100 = complete death
Outline: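 Compounds in acetone were track-sprayed at 15-1000 g ai/ha (187 l/ha) on sandy loam pots: pre-emerge one day after seeding, post-emerge at 2-3 leaf stage with 0.25% v/v non-ionic surfactant. Phytotoxicity was rated 14 days later on a 0 (no damage) to 100 (complete death) scale.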

[11] = tested on: upland rice (Oryza sp., var. Tebonnet, RICE); assay: Post-emerge test, crop safety; conditions: phytotoxicity rating 0-100 (0 no damage, 100 complete death), 14 days after application
Outline: (§2)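 Rating: 0–100 visual injury, 14 DAA. Application: acetone, 187 l/ha, 15–1000 g ai/ha, flat-fan track sprayer with nozzle 40–45 cm above soil or canopy. Post-emerge runs used 0.25% v/v surfactant on 2–3 leaf plants.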

[12] = tested on: field corn (Zea mays L., var. Dekalb 535, CORN); assay: Post-emerge test, crop safety; conditions: phytotoxicity rating 0-100 (0 no damage, 100 complete death), 14 days after application
Outline: as §2

[13] = tested on: velvetleaf (Abutilon theophrasti, ABUTH); assay: Post-emerge test, greenhouse herbicide activity screening; conditions: phytotoxicity rating 0-100 (0 no damage, 100 complete death), 14 days after application
Outline: (§3)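 Applied at 15–1000 g ai/ha from acetone in 187 l/ha spray volume. Post-emergence applications included 0.25% v/v non-ionic surfactant and reached plants sown 8–21 days before. Pre-emergence applications were incorporated by surface watering. Efficacy or crop damage was rated on a 0–100 scale after 14 days.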

[14] = tested on: redroot pigweed (Amaranthus retroflexus, AMARE); assay: as above; conditions: phytotoxicity rating 0-100 (0 no damage, 100 complete death), 14 days after application
Outline: as §3

[15] = tested on: barnyardgrass (Echinochloa crus-galli, ECHCG); assay: as above; conditions: phytotoxicity rating 0-100 (0 no damage, 100 complete death), 14 days after application
Outline: as §3

[16] = tested on: large crabgrass (Digitaria sanguinalis, DIGSA); assay: as above; conditions: phytotoxicity rating 0-100 (0 no damage, 100 complete death), 14 days after application
Outline: as §3

[17] = tested on: ivyleaf morningglory (Ipomoea hederacea, IPOHE); assay: as above; conditions: phytotoxicity rating 0-100 (0 no damage, 100 complete death), 14 days after application
Outline: as §3

[18] = tested on: lambsquarters (Chenopodium album, CHEAL); assay: as above; conditions: phytotoxicity rating 0-100 (0 no damage, 100 complete death), 14 days after application
Outline: as §3

[19] = tested on: common ragweed (Ambrosia artemisizfolia L., AMBEL); assay: as above; conditions: phytotoxicity rating 0-100 (0 no damage, 100 complete death), 14 days after application
Outline: as §3

[20] = tested on: sicklepod (Cassia obtusifolia, CASOB); assay: as above; conditions: phytotoxicity rating 0-100 (0 no damage, 100 complete death), 14 days after application
Outline: as §3

[21] = tested on: johnsongrass (Sorghum halepense, SORHA); assay: as above; conditions: phytotoxicity rating 0-100 (0 no damage, 100 complete death), 14 days after application
Outline: as §3

[22] = tested on: upland rice (Oryza sp., var. Tebonnet, RICE); assay: Pre-emerge test, crop safety; conditions: pre-emerge, rated 14 days after application, 0 = no damage, 100 = complete death
Outline: (§4)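 Compounds in acetone were track-sprayed at 187 l/ha, 15–1000 g ai/ha, onto sandy loam pots. Pre-emerge seeds were sown one day before spraying, with surface watering afterwards. Post-emerge plants were at the 2–3 leaf stage and sprayed with 0.25% v/v non-ionic surfactant. Injury was rated 0–100 at 14 days.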

[23] = tested on: field corn (Zea mays L., var. Dekalb 535, CORN); assay: Pre-emerge test, crop safety; conditions: pre-emerge, rated 14 days after application, 0 = no damage, 100 = complete death
Outline: as §4

Structure (SMILES): COc1c(Cl)cc(F)c(-n2c(=O)cc(C(F)(F)F)n(C)c2=O)c1NC(=O)c1ccc(C(C)(C)C)cc1 [2-30]
- Pre-emerge Herbicidal Activity ABUTH (phytotoxicity rating, scale 0-100) ([1]; 63 g ai/ha): 0
- Pre-emerge Herbicidal Activity ABUTH (phytotoxicity rating, scale 0-100) ([1]; 250 g ai/ha): 20
- Pre-emerge Herbicidal Activity SETVI (phytotoxicity rating, scale 0-100) ([2]; 63 g ai/ha): 0
- Pre-emerge Herbicidal Activity SETVI (phytotoxicity rating, scale 0-100) ([2]; 250 g ai/ha): 20
- Pre-emerge Herbicidal Activity ECHCG (phytotoxicity rating, scale 0-100) ([3]; 63 g ai/ha): 0
- Pre-emerge Herbicidal Activity ECHCG (phytotoxicity rating, scale 0-100) ([3]; 250 g ai/ha): 0
- Pre-emerge Herbicidal Activity DIGSA (phytotoxicity rating, scale 0-100) ([4]; 63 g ai/ha): 0
- Pre-emerge Herbicidal Activity DIGSA (phytotoxicity rating, scale 0-100) ([4]; 250 g ai/ha): 0
- Pre-emerge Herbicidal Activity IPOHE (phytotoxicity rating, scale 0-100) ([5]; 63 g ai/ha): 0
- Pre-emerge Herbicidal Activity IPOHE (phytotoxicity rating, scale 0-100) ([5]; 250 g ai/ha): 0
- Pre-emerge Herbicidal Activity CHEAL (phytotoxicity rating, scale 0-100) ([6]; 63 g ai/ha): 0
- Pre-emerge Herbicidal Activity CHEAL (phytotoxicity rating, scale 0-100) ([6]; 250 g ai/ha): 70
- Pre-emerge Herbicidal Activity AMBEL (phytotoxicity rating, scale 0-100) ([7]; 63 g ai/ha): 0
- Pre-emerge Herbicidal Activity AMBEL (phytotoxicity rating, scale 0-100) ([7]; 250 g ai/ha): 0
- Pre-emerge Herbicidal Activity CASOB (phytotoxicity rating, scale 0-100) ([8]; 63 g ai/ha): 0
- Pre-emerge Herbicidal Activity CASOB (phytotoxicity rating, scale 0-100) ([8]; 250 g ai/ha): 0
- Pre-emerge Herbicidal Activity SORHA (phytotoxicity rating, scale 0-100) ([9]; 63 g ai/ha): 0
- Pre-emerge Herbicidal Activity SORHA (phytotoxicity rating, scale 0-100) ([9]; 250 g ai/ha): 0
- Pre-emerge Herbicidal Activity AMARE (phytotoxicity rating, scale 0-100) ([10]; 63 g ai/ha): 0
- Pre-emerge Herbicidal Activity AMARE (phytotoxicity rating, scale 0-100) ([10]; 250 g ai/ha): 0
- Post-emerge Herbicidal Activity RICE (crop damage) ([11]; 63 g ai/ha): 0
- Post-emerge Herbicidal Activity RICE (crop damage) ([11]; 250 g ai/ha): 0
- Post-emerge Herbicidal Activity CORN (crop damage) ([12]; 63 g ai/ha): 0
- Post-emerge Herbicidal Activity CORN (crop damage) ([12]; 250 g ai/ha): 0
- Post-emerge Herbicidal Activity ABUTH ([13]; 63 g ai/ha): 30
- Post-emerge Herbicidal Activity ABUTH ([13]; 250 g ai/ha): 70
- Post-emerge Herbicidal Activity AMARE ([14]; 63 g ai/ha): 0
- Post-emerge Herbicidal Activity AMARE ([14]; 250 g ai/ha): 20
- Post-emerge Herbicidal Activity ECHCG ([15]; 63 g ai/ha): 0
- Post-emerge Herbicidal Activity ECHCG ([15]; 250 g ai/ha): 0
- Post-emerge Herbicidal Activity DIGSA ([16]; 63 g ai/ha): 0
- Post-emerge Herbicidal Activity DIGSA ([16]; 250 g ai/ha): 0
- Post-emerge Herbicidal Activity IPOHE ([17]; 63 g ai/ha): 0
- Post-emerge Herbicidal Activity IPOHE ([17]; 250 g ai/ha): 20
- Post-emerge Herbicidal Activity CHEAL ([18]; 63 g ai/ha): 0
- Post-emerge Herbicidal Activity CHEAL ([18]; 250 g ai/ha): 50
- Post-emerge Herbicidal Activity AMBEL ([19]; 63 g ai/ha): 0
- Post-emerge Herbicidal Activity AMBEL ([19]; 250 g ai/ha): 10
- Post-emerge Herbicidal Activity CASOB ([20]; 63 g ai/ha): 0
- Post-emerge Herbicidal Activity CASOB ([20]; 250 g ai/ha): 0
- Post-emerge Herbicidal Activity SORHA ([21]; 63 g ai/ha): 0
- Post-emerge Herbicidal Activity SORHA ([21]; 250 g ai/ha): 0
- Pre-emerge crop damage RICE (phytotoxicity rating, scale 0-100) ([22]; 63 g ai/ha): 0
- Pre-emerge crop damage RICE (phytotoxicity rating, scale 0-100) ([22]; 250 g ai/ha): 0
- Pre-emerge crop damage CORN (phytotoxicity rating, scale 0-100) ([23]; 63 g ai/ha): 0
- Pre-emerge crop damage CORN (phytotoxicity rating, scale 0-100) ([23]; 250 g ai/ha): 0
